US20230079757A1, “METHODS AND MATERIALS FOR TREATING CANCER” (Mayo Foundation for Medical Education and Research, priority 2020, published 2023)
Numbering of substitutions follows the chain as printed. One block for each molecule: values may come before it. l = locked nucleic acid (LNA); d = 2'-deoxy (DNA)

Key:
MyC-CaP prostate tumors = experiment: Growth of subcutaneous MyC-CaP prostate tumors in FVB male mice; format: in vivo; settings: ASO 12.5 mg/kg intraperitoneal, n=6
Procedure: (§1) FIGS. 19A-19B. FOXA1 ASOs sensitize prostate cancer to anti-PD-L1 immunotherapy in mice. (FIG. 19A) Western blot analysis of Foxal protein in MyC-CaP mouse prostate cancer cells at 48 hours after transfection with control ASO (Con ASO), Foxal gene specific ASO1, or Foxa1 gene specific ASO2. Erk2 was used as a loading control. (FIG. 19B) Growth of subcutaneous MyC-CaP prostate tumors in wild type intact FVB male mice. Mice were treated with anti-PD-L1 or non-specific IgG (10 mg/kg) in combination with control ASO (Con ASO) (12.5 mg/kg), Foxal ASO1 (12.5 mg/kg), or Foxa1 ASO2 (12.5 mg/kg) for the indicated number of days. Data shown as means ±s.d. (n=6). Statistical significance was determined by two-way ANOVA (* P<0.05; ** P <0.01; *** P <0.0001).
MyC-CaP cells (3×10^6) were injected subcutaneously into the right flank of 6-week-old wild-type intact FVB male mice. When the average tumor volume reached approximately 100 mm^3, mice were randomized into groups subsequently treated with intraperitoneal injection of anti-PD-L1 or non-specific control IgG (10 mg/kg) in combination with control antisense oligonucleotides (12.5 mg/kg), Foxal ASO1 (12.5 mg/kg), or Foxal-ASO2 (12.5 mg/kg).
Thirty six 6-week-old wild-type intact FVB mice were purchased from Jackson Laboratories (Bar Harbor, Me.). Tumor volume was measured by digital caliper and calculated using a formula of length×width×width×0.5.

Foxa1 protein = experiment: Western blot analysis of Foxa1 protein in MyC-CaP cells after ASO transfection; format: cell-based; settings: MyC-CaP murine prostate cancer cells, 48 hours after transfection, vs control ASO
Procedure: as §1
MyC-CaP murine prostate cancer cells were transfected with control ASO (Con ASO) or two Foxal-specific ASOs (Foxal ASO1 and Foxal ASO2).
The MyC-CaP murine prostate cancer cell line, originally derived from prostate tumors of Hi-Myc transgenic mice in FVB genetic background, was purchased from ATCC (Manassas, Va.).
Antibodies used include anti-FOXA1 antibody (# ab23738, Abcam), anti-ERK2 (# sc-1647, Santa Cruz Biotechnology), anti-mouse PD-L1 mAb (clone 10B5), and InVivoMAb mouse IgG1 isotype control (clone MOPC-21) (# BE0083, Bio X Cell).

TRAMP-C2 tumors [1] = experiment: CyTOF analysis of immune cells in TRAMP-C2 tumors after Poly(I:C); format: in vivo, mice
Text: (§2) FIGS. 13A-13H. FOXA1 overexpression confers cancer immuno- and chemo-therapy resistance in mice and patients. FIG. 13A) Schematic diagram of generation and Poly(I:C) treatment of TRAMP-C2 prostate tumors in syngeneic mice. FIG. 13B) Growth of TRAMP-C2-Vector and TRAMP-C2-FOXA1ΔαH3 tumors treated with or without Poly(I:C). FIG. 13C) Tumor-free survival of syngeneic mice bearing TRAMP-C2-Vector or TRAMP-C2-FOXA1ΔαH3 tumors administrated with or without Poly(I:C). Statistical significance was determined by Log-rank (Mantel-Cox) test. FIGS. 13D and 13E) PhenoGraph-defined cellular distribution and clustering, as defined by tSNE1 and tSNE2, colored by cellular phenotypes in TRAMP-C2-Vector and TRAMP-C2-FOXA1ΔαH3 tumors from mice at 16 days post vehicle or Poly(I:C) treatment (FIG. 13D). Data were derived from all normalized viable single cells, subjected to the PhenoGraph algorithm. Data in the bar graphs (FIG. 13E) are means ±s.d, n=3. […] Statistical significance was determined by unpaired two-tailed Student's t tests in FIGS. 13E, 13F and 13G. FIG. 13H) Progression-free survival of patients with FOXA1-expression low or high urothelial carcinoma treated with anti-PD1 immunotherapy. Statistical significance was determined by Log-rank (Mantel-Cox) test.
(§3) TRAMP-C2-Vector or TRAMP-C2-FOXA1ΔαH3 cells (3×10^6) were injected subcutaneously into the right flank of 8-week old male C57BL/6 on day 0. Tumors were measured twice per week with calipers and the volume calculated (length×width×width×0.5). Poly I:C (2.5 mg/kg, 100 pl) purchased from Sigma-Aldrich (# P1530) or vehicle (PBS, 100 pl) was administered by intratumoral injection twice per week (five doses in total) and tumors were measured twice per week until the tumor volume reached the maximum allowed size ([…]). For CyTOF and Immunofluorescence experiments, mice were euthanized at 48 hours post the last administration.
Single tumor cells were isolated using the Mouse Tumor Dissociation Kit (Miltenyi Biotec, # 130-096-730) following standard protocol. CyTOF staining panels are detailed in Table 3. […]

TRAMP-C2 tumors [2] = experiment: Growth and survival of TRAMP-C2 prostate tumors in syngeneic C57BL/6 mice treated intratumorally with Poly(I:C); format: in vivo
Text: as §2
To directly explore the role of FOXA1 in inhibiting cancer immune response, stable murine prostate cancer TRAMP-C2 cell lines overexpressing FOXA1-WT, cancer-associated mutant FOXA1-R261G and DNA binding-deficient mutant FOXA1ΔαH3, were established. […]
as §3, with “For CyTOF and Immunofluorescence experiments, mice were euthanized at 48 hours post the last administration.” left out

[3] = target: T1, GST-tagged STAT2 DNA binding domain (a.a. 312-486) (UniProt P52630 312-486); experiment: mutagenesis and GST pull down (FIG. 9E)
T1 construct: range 312-486; also called STAT2-DBD; STAT2 DBD; not shown: GST tag
T1 sequence (looked up): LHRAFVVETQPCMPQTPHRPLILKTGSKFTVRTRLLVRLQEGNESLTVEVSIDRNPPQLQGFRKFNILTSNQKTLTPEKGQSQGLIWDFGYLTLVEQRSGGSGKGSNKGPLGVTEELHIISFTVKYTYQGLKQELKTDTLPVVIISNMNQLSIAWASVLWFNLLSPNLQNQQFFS
Procedure: (§4) For extraction of nuclear and cytoplasmic proteins from cells, NE-PER Nuclear and Cytoplasmic Extraction Kit (# 78835, Thermo Fisher Scientific) was used according to the manufacturer's instructions. IP buffer (50 mM Tris-HCl pH7.5, 150 mM NaCl, 1% NP40, 0.5% Sodium Deoxycholate) was used to extract whole cell lysate. P rotein A/G agarose (# 20421, Thermo Fisher Scientific) was used for immunoprecipitation of FOXA1 (# ab23738, Abcam) and Flag-tag (dilution 1:1000; # F1804, Sigma-Aldrich). Monoclonal anti-HA agarose (# A2095, Sigma-Aldrich) was used for HA-tag Co-IP. For glutathione-S-transferase (GST) pulldown assay, GST-tagged STAT2 fragment expressed at E. coli was purified by Glutathione Sepharose 4B beads (# 84-239, Genesee Scientific) and incubated with lysate from 293T cells expressing interested proteins, and GST pulldown assays were performed. For protein co-IP, samples eluted in IP butter were incubated with agarose beads and antibodies overnight at 4° C. and washed with 6 times with IP buffer in the following day. Samples were boiled for 10 minutes in 50 μl sample buffer (2% SDS, 10% glycerol, 10% β-mercaptoethanol, bromophenol blue and Tris-HCl, pH 6.8) and subjected to Western blotting.

STAT2 = target: T2, STAT2 (human, UniProt P52630 1-851); experiment: co-IP of ectopically expressed proteins in 293T cells (FIG. 11E)
T2 construct: also called endogenous STAT2
T2 sequence (P52630 whole entry): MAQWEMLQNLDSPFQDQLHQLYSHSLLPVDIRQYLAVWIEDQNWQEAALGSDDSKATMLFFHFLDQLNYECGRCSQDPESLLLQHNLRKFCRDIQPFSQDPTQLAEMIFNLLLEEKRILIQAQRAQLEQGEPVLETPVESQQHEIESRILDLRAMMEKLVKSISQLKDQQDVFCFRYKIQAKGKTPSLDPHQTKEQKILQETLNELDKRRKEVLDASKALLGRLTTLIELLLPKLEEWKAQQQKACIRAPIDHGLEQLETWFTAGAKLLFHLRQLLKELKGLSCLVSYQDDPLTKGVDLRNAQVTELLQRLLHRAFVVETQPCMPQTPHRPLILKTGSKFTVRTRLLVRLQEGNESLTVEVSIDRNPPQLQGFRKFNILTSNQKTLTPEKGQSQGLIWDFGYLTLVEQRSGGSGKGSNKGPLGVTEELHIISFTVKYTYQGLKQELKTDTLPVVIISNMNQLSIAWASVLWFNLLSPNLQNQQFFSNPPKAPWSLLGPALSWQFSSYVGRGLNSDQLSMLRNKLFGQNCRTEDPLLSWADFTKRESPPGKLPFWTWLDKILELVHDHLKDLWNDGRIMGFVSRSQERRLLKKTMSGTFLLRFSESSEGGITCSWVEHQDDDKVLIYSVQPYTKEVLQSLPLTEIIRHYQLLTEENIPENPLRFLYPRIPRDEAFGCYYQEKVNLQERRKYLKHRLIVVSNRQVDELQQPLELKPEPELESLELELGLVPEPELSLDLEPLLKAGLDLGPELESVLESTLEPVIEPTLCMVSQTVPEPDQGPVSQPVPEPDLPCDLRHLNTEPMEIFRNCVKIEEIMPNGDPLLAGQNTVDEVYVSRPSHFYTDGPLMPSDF
Procedure: as §4

Molecule: Foxa1 ASO1: LNA/PS antisense oligo +G*+G*+T*A*G*C*G*C*C*A*T*A*A*G*G*A*G*+A*+G*+T (SEQ ID NO: 42) (antisense GGTAGCGCCATAAGGAGAGT; sugars from the 5' end l3 d14 l3, all phosphorothioate, methylation of C not given here)
tumor growth (MyC-CaP prostate tumors): significantly inhibited tumor growth | Foxa1 protein knockdown (Foxa1 protein): substantially knocked down

Molecule: Foxa1 ASO2: LNA/PS antisense oligo +T*+G*+G*A*T*G*G*C*C*A*T*C*G*+T*+G*+A (SEQ ID NO: 43) (antisense TGGATGGCCATCGTGA; sugars from the 5' end l3 d10 l3, all phosphorothioate, methylation of C not given here)
tumor growth (MyC-CaP prostate tumors): significantly inhibited tumor growth | Foxa1 protein knockdown (Foxa1 protein): substantially knocked down

Molecule: Poly(I:C)
TILs, especially CD8+ T and NK cells (TRAMP-C2 tumors [1]; TRAMP-C2-FOXA1ΔαH3 tumors): such effect was diminished | CD11b+Gr1+ myeloid-derived suppressor cells (MDSCs) (TRAMP-C2 tumors [1]; TRAMP-C2-Vector tumors): reduced | TILs, especially CD8+ T and NK cells (TRAMP-C2 tumors [1]; TRAMP-C2-Vector tumors): discernibly increased | tumor growth-inhibitory effect (TRAMP-C2 tumors [2]; TRAMP-C2-FOXA1ΔαH3 tumors, Poly I:C 2.5 mg/kg intratumoral): largely diminished | overall mouse survival (TRAMP-C2 tumors [2]; TRAMP-C2-Vector tumors, Poly I:C 2.5 mg/kg intratumoral): prolonged | tumor growth (TRAMP-C2 tumors [2]; TRAMP-C2-Vector tumors, Poly I:C 2.5 mg/kg intratumoral twice per week, five doses): decreased the growth

B1: FOXA1 forkhead domain-containing region (FKCR, a.a. 141-294) (other, UniProt P55317 141-294, looked up)
chain: MAYAPSNLGRSRAGGGGDAKTFKRSYPHAKPPYSYISLITMAIQQAPSKMLTLSEIYQWIMDLFPYYRQNQQRWQNSIRHSLSFNDCFVKVARSPDKPGKGSYWTLHPDSGNMFENGCYLRRQKRFKCEKQPGAGGGGGSGSGGSGAKGGPESR
notes: Expressed in 293T cells, and the lysate was used for GST pulldown; also called FOXA1-FKCR
binding result [3]: binds

binding result (STAT2): binds
B2: FOXA1-F266L (other, UniProt P55317 1-472, looked up)
chain: MLGTVKMEGHETSDWNSYYADTQEAYSSVPVSNMNSGLGSMNSMNTYMTMNTMTTSGNMTPASFNMSYANPGLGAGLSPGAVAGMPGGSAGAMNSMTAAGVTAMGTALSPSGMGAMGAQQAASMNGLGPYAAAMNPCMSPMAYAPSNLGRSRAGGGGDAKTFKRSYPHAKPPYSYISLITMAIQQAPSKMLTLSEIYQWIMDLFPYYRQNQQRWQNSIRHSLSFNDCFVKVARSPDKPGKGSYWTLHPDSGNMFENGCYLRRQKRLKCEKQPGAGGGGGSGSGGSGAKGGPESRKDPSGASNPSADSPLHRGVHGKTGQLEGAPAPGPAASPQTLDHSGATATGGASELKTPASSTAPPISSGPGALASVPASHPAHGLAPHESQLHLKGDPHYSFNHPFSINNLMSSSEQQHKLDFKAYEQALQYSPYGSTLPASLPLGSASVTTRSPIEPSALEPAYYQGVYSRPVLNTS
notes: Ectopically expressed in 293T cells

binding result (STAT2): binds
B3: FOXA1-R261G (other, UniProt P55317 1-472, looked up)
chain: B2 chain with R261G, L266F
notes: as for B2

binding result (STAT2): binds
B4: FOXA1-H247Q (other, UniProt P55317 1-472, looked up)
chain: B2 chain with H247Q, L266F
notes: as for B2
